Measured values reported in US20240343704A1, “HALO-SUBSTITUTED AMINO PYRIDINE COMPOUNDS AS INHIBITORS OF THE HAEMATOPOIETIC PROGENITOR KINASE 1 (HPK1)” (priority 2021, published 2024).

Tests used:
Lck (h) = Lck (h) (Homo sapiens, UniProt P06239); assay: Lck Human  Kinase Enzymatic Radiometric Assay; format: biochemical; details: for LcK IC50/HPK IC50 selectivity: ratio of Lck IC50 to HPK1 IC50; for IC50: read-out: Lck IC50 nM Range*
Protocol: Lck (h) is incubated with 50 mM Tris pH 7.5, 0.1 mM EGTA, 0.1 mM Na3VO4, 250 uM KVEKIGEGTYGVVYK (Cdc2 peptide), 10 mM MgAcetate and [gamma-33P]-ATP (specific activity and concentration as required). The reaction is initiated by the addition of the Mg/ATP mix. After incubation for 40 minutes at RT, the reaction is stopped by the addition of phosphoric acid to a concentration of 0.5%. 10 uL of the reaction is then spotted onto a P30 filtermat and washed four times for 4 minutes in 0.425% phosphoric acid and once in methanol prior to drying and scintillation counting. For more details on the kinase assay procedures see: Gao, Y. et. al.; Biochem J., 451 (2): 313-328, 2013.

[1] = biological target: T1, Recombinant (1-346) HPK1 (h) (Homo sapiens, UniProt Q92918); assay: HPK1 Human STE Kinase Enzymatic Radiometric Assay; format: biochemical; details: read-out: HPK1 IC50 nM Range*
T1 construct: Recombinant (1-346) HPK1 (h) is incubated with 8 mM MOPS pH 7.0
T1 sequence (Q92918 1-346): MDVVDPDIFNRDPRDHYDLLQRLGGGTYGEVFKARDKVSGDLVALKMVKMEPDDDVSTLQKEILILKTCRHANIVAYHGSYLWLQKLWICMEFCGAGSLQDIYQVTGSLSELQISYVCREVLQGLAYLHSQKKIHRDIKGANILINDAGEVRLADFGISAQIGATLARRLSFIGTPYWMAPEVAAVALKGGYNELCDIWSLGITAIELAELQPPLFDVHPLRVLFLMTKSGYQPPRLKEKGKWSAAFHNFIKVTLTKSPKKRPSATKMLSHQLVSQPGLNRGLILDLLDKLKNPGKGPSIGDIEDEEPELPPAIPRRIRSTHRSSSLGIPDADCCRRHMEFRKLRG
Protocol: A stock solution of 10 mM of test compound is prepared in DMSO. The compound plate was prepared by 3-fold and 9-point serial dilutions. […] The reaction is initiated by The addition of the Mg/ATP mix. After incubation for 40 minutes at RT, the reaction is stopped by the addition of phosphoric acid to a concentration of 0.5%.

Lck (h), sequence (P06239 whole entry): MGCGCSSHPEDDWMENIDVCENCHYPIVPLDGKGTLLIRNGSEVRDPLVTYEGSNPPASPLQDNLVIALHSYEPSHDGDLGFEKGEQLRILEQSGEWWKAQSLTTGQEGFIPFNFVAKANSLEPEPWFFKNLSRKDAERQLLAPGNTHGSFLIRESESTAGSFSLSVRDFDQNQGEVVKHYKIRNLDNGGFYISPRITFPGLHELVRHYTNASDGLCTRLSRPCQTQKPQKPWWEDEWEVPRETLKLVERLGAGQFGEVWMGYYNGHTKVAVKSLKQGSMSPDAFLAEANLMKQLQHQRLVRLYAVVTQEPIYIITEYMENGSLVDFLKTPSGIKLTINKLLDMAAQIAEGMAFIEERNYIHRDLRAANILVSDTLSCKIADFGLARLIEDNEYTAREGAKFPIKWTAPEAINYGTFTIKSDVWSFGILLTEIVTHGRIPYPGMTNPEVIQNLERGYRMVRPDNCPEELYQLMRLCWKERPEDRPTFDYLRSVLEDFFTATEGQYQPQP

Row | SMILES | IC50 [1] | other results
1 | Nc1nc(F)c(-c2ccc(N3C[C@H]4COC[C@H]4C3)cc2)cc1-c1ccc2c(c1)CCNC2=O | – | LcK IC50/HPK IC50 selectivity (Lck (h)): 323
2 | Nc1nc(F)c(-c2ccc(N3CCOCC3)cc2)cc1-c1ccc2c(c1)CCNC2=O [I-16, 6-(2-amino-6-fluoro-5-(4-morpholinophenyl)pyridin-3-yl)-3,4-dihydroisoquinolin-1(2H)-one] | – | IC50 (Lck (h)): > 1000 nM
3 | Nc1nc(F)c(-c2ccc(N3CCN(CCCC(F)F)CC3)cc2)cc1-c1cc2c(cc1F)C(=O)NCC2 [I-441, 6-(2-amino-5-(4-(4-(4,4-difluorobutyl)piperazin-1-yl)phenyl)-6-fluoropyridin-3-yl)-7-fluoro-3,4-dihydroisoquinolin-1(2H)-one] | – | IC50 (Lck (h)): > 1000 nM
4 | CN(C)Cc1cc(-c2cc(-c3ccc4c(c3)CCNC4=O)c(N)nc2F)c(F)c(F)c1N1CCOCC1 [I-623, 6-(2-amino-5-(5-((dimethylamino)methyl)-2,3-difluoro-4-morpholinophenyl)-6-fluoropyridin-3-yl)-3,4-dihydroisoquinolin-1(2H)-one] | 11 to 100 nM | –
5 | CC(c1cc(-c2cc(-c3ccc4c(c3)CCNC4=O)c(N)nc2F)ccc1O)N(C)C (centres unmarked) [I-624, 6-(2-amino-5-(3-(1-(dimethylamino)ethyl)-4-hydroxyphenyl)-6-fluoropyridin-3-yl)-3,4-dihydroisoquinolin-1(2H)-one] | 11 to 100 nM | –
6 | CC(C)(N)c1cc(-c2cc(-c3ccc4c(c3)CCNC4=O)c(N)nc2F)ccc1F [I-625, 6-(2-amino-5-(3-(2-aminopropan-2-yl)-4-fluorophenyl)-6-fluoropyridin-3-yl)-3,4-dihydroisoquinolin-1(2H)-one] | 101 to 1000 nM | –
7 | Cc1c[nH]c(=O)c2ccc(-c3cc(-c4ccc(F)c(CN(C)C)c4)c(F)nc3N)cc12 [I-626, 6-(2-amino-5-(3-((dimethylamino)methyl)-4-fluorophenyl)-6-fluoropyridin-3-yl)-4-methylisoquinolin-1(2H)-one] | 101 to 1000 nM | –
8 | Cc1c[nH]c(=O)c2ccc(-c3cc(-c4cccc(CN(C)C)c4)c(F)nc3N)cc12 [I-627, 6-(2-amino-5-(3-((dimethylamino)methyl)phenyl)-6-fluoropyridin-3-yl)-4-methylisoquinolin-1(2H)-one] | 101 to 1000 nM | –
9 | Cc1c[nH]c(=O)c2ccc(-c3cc(-c4ccc5c(c4)[C@H](N(C)C)CCO5)c(F)nc3N)cc12 [I-628, (R)-6-(2-amnio-5-(4-(dimethylamino)chroman-6-yl)-6-fluoropyridin-3-yl)-4-methylisoquinolin-1(2H)-one] | 11 to 100 nM | –
10 | Cc1c[nH]c(=O)c2ccc(-c3cc(-c4ccc5c(c4)[C@H](N(C)C)CO5)c(F)nc3N)cc12 [I-629, (S)-6-(2-amino-5-(3-(dimethylamino)-2,3-dihydrobenzofuran-5-yl)-6-fluoropyridin-3-yl)-4-methylisoquinolin-1(2H)-one] | 101 to 1000 nM | –
11 | CN(C)[C@@H]1COc2ccc(-c3cc(-c4ccc5c(=O)[nH]cc(F)c5c4)c(N)nc3F)cc21 [I-630, (S)-6-(2-amino-5-(3-(dimethylamino)-2,3-dihydrobenzofuran-5-yl)-6-fluoropyridin-3-yl)-4-fluoroisoquinolin-1(2H)-one] | 11 to 100 nM | –
12 | CN(C)[C@@H]1CCOc2ccc(-c3cc(-c4ccc5c(=O)[nH]cc(F)c5c4)c(N)nc3F)cc21 [I-631, (R)-6-(2-amino-5-(4-(dimethylamino)chroman-6-yl)-6-fluoropyridin-3-yl)-4-fluoroisoquinolin-1(2H)-one] | 11 to 100 nM | –
13 | COc1ccc(-c2cc(-c3ccc4c(c3)CCNC4=O)c(N)nc2F)cc1C#N [I-632, 5-(6-amino-2-fluoro-5-(1-oxo-1,2,3,4-tetrahydroisoquinolin-6-yl)pyridin-3-yl)-2-methoxybenzonitrile] | 11 to 100 nM | –
14 | CCN(C)Cc1cc(-c2cc(-c3ccc4c(=O)[nH]cc(F)c4c3)c(N)nc2F)ccc1OC [I-633, 6-(2-amino-5-(3-((ethyl(methyl)amino)methyl)-4-methoxyphenyl)-6-fluoropyridin-3-yl)-4-fluoroisoquinolin-1(2H)-one] | 11 to 100 nM | –
15 | CCN(C)Cc1cc(-c2cc(-c3ccc4c(=O)[nH]cc(C)c4c3)c(N)nc2F)ccc1OC [I-634, 6-(2-amino-5-(3-((ethyl(methyl)amino)methyl)-4-methoxyphenyl)-6-fluoropyridin-3-yl)-4-methylisoquinolin-1(2H)-one] | 11 to 100 nM | –
16 | Nc1nc(F)c(-c2ccc(N3CCN(CC4CC4)CC3)cc2)cc1-c1cc(F)c2c(c1)OCCNC2=O [I-635, 8-(2-amino-5-(4-(4-(cyclopropylmethyl)piperazin-1-yl)phenyl)-6-fluoropyridin-3-yl)-6-fluoro-3,4-dihydrobenzo[f][1,4]oxazepin-5(2H)-one] | 0.1 to 10 nM | –

Row | SMILES | IC50 [1] | other results
17 | CC(C)N1CCN(c2ccc(-c3cc(-c4cc(F)c5c(c4)OCCNC5=O)c(N)nc3F)cc2)CC1 [I-636, 8-(2-amino-6-fluoro-5-(4-(4-isopropylpiperazin-1-yl)phenyl)pyridin-3-yl)-6-fluoro-3,4-dihydrobenzo[f][1,4]oxazepin-5(2H)-one] | 0.1 to 10 nM | –
18 | CC(C)N1CCN(c2ccc(-c3cc(-c4cc(F)c5c(c4)CNC5=O)c(N)nc3F)cc2)CC1 [I-637, 5-(2-amino-6-fluoro-5-(4-(4-isopropylpiperazin-1-yl)phenyl)pyridin-3-yl)-7-fluoroisoindolin-1-one] | 11 to 100 nM | –
19 | Cn1cnnc1CC1(c2cccc(-c3cc(-c4ccc5c(c4)CCNC5=O)c(N)nc3F)c2)COC1 [I-638, 6-(2-amino-6-fluoro-5-(3-(3-((4-methyl-4H-1,2,4-triazol-3-yl)methyl)oxetan-3-yl)phenyl)pyridin-3-yl)-3,4-dihydroisoquinolin-1(2H)-one] | 101 to 1000 nM | –
20 | CC(C)N1CCN(c2ccc(-c3ccc(Nc4ccc5c(c4)CCNC5=O)nc3F)cc2)CC1 [I-639, 6-((6-fluoro-5-(4-(4-isoproylpiperazin-1-yl)phenyl)pyridin-2-yl)amino)-3,4-dihydroisoquinolin-1(2H)-one] | > 1000 nM | –
21 | Nc1nc(F)c(-c2ccc(N3CCN(CC4CC4(F)F)CC3)cc2)cc1-c1ccc2c(c1)CCNC2=O (centres unmarked) [I-640, 6-(2-amino-5-(4-(4-((2,2-difluorocyclopropyl)methyl)piperazin-1-yl)phenyl)-6-fluoropyridin-3-yl)-3,4-dihydroisoquinolin-1(2H)-one] | 0.1 to 10 nM | –
22 | Nc1nc(F)c(-c2ccc(N3CCN(CCCC(F)F)CC3)cc2)cc1-c1ccc2c(c1)CCNC2=O [I-641, 6-(2-amino-5-(4-(4-(4,4-difluorobutyl)piperazin-1-yl)phenyl)-6-fluoropyridin-3-yl)-3,4-dihydroisoquinolin-1(2H)-one] | 0.1 to 10 nM | –
23 | CN1CCC[C@H]1c1cc(-c2cc(-c3ccc4c(c3)CCNC4=O)c(N)nc2F)ccc1C1CCOCC1 [I-642, (S)-6-(2-amino-6-fluoro-5-(3-(1-methylpyrrolidin-2-yl)-4-(tetrahydro-2H-pyran-4-yl)phenyl)pyridin-3-yl)-3,4-dihydroisoquinolin-1(2H)-one] | 11 to 100 nM | –
24 | Cc1nc2cc(-c3cc(-c4ccc(C5CCOCC5)c([C@@H]5CCCN5)c4)c(F)nc3N)ccc2c(=O)[nH]1 [I-643, (S)-7-(2-amino-6-fluoro-5-(3-(pyrrolidin-2-yl)-4-(tetrahydro-2H-pyran-4-yl)phenyl)pyridin-3-yl)-2-methylquinazolin-4(3H)-one] | 11 to 100 nM | –
25 | Nc1nc(F)c(-c2ccc(N3CCN(CCC4CC4(F)F)CC3)cc2)cc1-c1ccc2c(c1)CCNC2=O (centres unmarked) [I-644, 6-(2-amino-5-(4-(4-(2-(2,2-difluorocyclopropyl)ethyl)piperazin-1-yl)phenyl)-6-fluoropyridin-3-yl)-3,4-dihydroisoquinolin-1(2H)-one] | 0.1 to 10 nM | –
26 | CN(C)Cc1cc(-c2cc(-c3ccc4c(c3)CCNC4=O)c(N)nc2F)ccc1C1CCOCC1 [I-645, 6-(2-amino-5-(3-((dimethylamino)methyl)-4-(tetrahydro-2H-pyran-4-yl)phenyl)-6-fluoropyridin-3-y)-3,4-dihydroisoquinolin-1(2H)-one] | 0.1 to 10 nM | –
27 | Nc1nc(F)c(-c2cccc([C@@H]3CCCN3)c2)cc1-c1ccc2c(c1)CCNC2=O [I-646, (S)-6-(2-amino-6-fluoro-5-(3-(pyrrolidin-2-yl)phenyl)pyridin-3-yl)-3,4-dihydroisoquinolin-1(2H)-one] | 0.1 to 10 nM | –
28 | Nc1nc(F)c(-c2ccc(C3CCNCC3)cc2)cc1-c1ccc2c(c1)CCNC2=O [drawing 2673] | – | LcK IC50/HPK IC50 selectivity (Lck (h)): 1603
29 | Nc1nc(F)c(-c2cnn(C3CCOCC3)c2)cc1-c1ccc2c(c1)CCNC2=O [drawing 2675] | – | LcK IC50/HPK IC50 selectivity (Lck (h)): 2000
30 | Nc1nc(F)c(-c2ccc(N3CCCC3)cc2)cc1-c1ccc2c(c1)CCNC2=O [drawing 2677] | – | LcK IC50/HPK IC50 selectivity (Lck (h)): 769
31 | Nc1nc(F)c(-c2ccc(N3CCCCC3)cc2)cc1-c1ccc2c(c1)CCNC2=O [drawing 2679] | – | LcK IC50/HPK IC50 selectivity (Lck (h)): 1250
32 | Nc1nc(F)c(-c2ccc(N3C[C@@H]4CCO[C@@H]4C3)cc2)cc1-c1ccc2c(c1)CCNC2=O [drawing 2683] | – | LcK IC50/HPK IC50 selectivity (Lck (h)): 1429
